Laboratory results: patent US20260132165A1, “MODIFIED NUCLEOSIDE ANALOGUE AND USE THEREOF, AND NUCLEOSIDE ANALOGUE-CONTAINING DOUBLE-STRANDED OLIGONUCLEOTIDE AND USE THEREOF” (RIGERNA THERAPEUTICS (BEIJING) CO., LTD., priority 2023, published 2026)
“And” between values parts separate entries of the source, which are not always exact repeats. Equal values may be shown once.

How the values were obtained:
[1] = test system: SOD1; assay: Test Example 2: inhibitory activity of NM031 conjugated siRNA on SOD1 by intrathecal administration to mice; assay type: in vivo, C57BL/6j mice; conditions: D9
Description: 6-8 Week-old C57BL/6j mice were randomly grouped into 4 groups by body weight. PBS group was dosed with siRNA-free PBS solution, RX899001 group was dosed with siRNA compound RX899001 without vector conjugation, RZ899001 group was dosed with siRNA RZ899001 (the sense strand with the Uhd conjugation at Position 4) prepared in Example 1, and RZ899008 was dosed with siRNA RZ899008 (the sense strand with the NM031 conjugation at Position 4) prepared in Example 1. Mices in each group were anesthetized with isoflurane. After anesthetization, lumbar region thereof was sprayed wet with 75% disinfecting alcohol. 10 μL (concentration […]) of siRNA drug containing PBS solvent was sucked with an insulin injection needle, the mouse lumbar region was pinched with the left-hand index finger and thumb, patella crest was propped against, and needle was held by the right hand. The needle was bent by forceps in advance, wherein the needle was first bent in the middle by 80° to 90°, then a front half part of the needle was bent in half, and the whole needle was bent in an are shape of about 60° to 90°. Mouse abdominal region was padded with an article with a thickness of about 2 cm. The needle was inserted from a joint of lumbar spines L5 and L6 of mice, and when inserting the needle, the hand was slightly inclined forwards to insert the needle. […] After completion of the injection, the needle was slowly withdrawn at uniform velocity. The administration dose to each mouse in RX899001 group, RZ899001 group and RZ899008 group was 800 μg, a total volume injected was 10 μL, and the PBS group was administered with the same volume of siRNA-free PBS solution. After the animals woke up, the animals were returned back to the animal feeding room and further fed. The day of administration was recorded as first day (D1), and the mice were sacrificed on ninth day (D9). Lumbar spine, thoracic spine and cerebellum were respectively taken and stored in the RNAlater.
RNA extraction: an appropriate amount of lumbar spine, thoracic spine and cerebellum samples were respectively taken out from the RNAlater, and smashed for 60 s in Tissuelyser type II full-automatic tissue homogenizer, and total RNAs of various tissue samples were extracted using the full-automatic nucleic acid extraction instrument and the nucleic acid extraction kit from Zhejiang Hanwei Science and Technology Co. Ltd. according to methods described in instructions. Reverse transcription reaction: 1 μg of the extracted total RNAs of various tissue samples were respectively taken, and configured into 20 μL of reverse transcription system according to a method described in kit instructions by using a reverse transcription kit (Reverse Transcription System, A3500) from Promega Corporation and selecting Oligo (dT)15 reverse transcription primers, and the reverse transcription reaction was completed. After the reaction was ended, 80 μL of RNase-Free water was added into the reverse transcription system to provide cDNA solution for Real-time PCR detection.
Real-time PCR detection: 20 μL of Real-time PCR reaction system per PCR detection well was configured according to a method described in kit instructions using SYBR™ Select Master Mix (Catalog number: 4472908) reagent from ABI company. Each detection system contained 5 μL of cDNA template obtained from the above reverse transcription reaction, 10 μL of SYBR™ Select Master Mix, 0.5 μL of 10 μM upstream primers, 0.5 μL of 10 μM downstream primers (see TABLE 5 for primer information), and 4 μL of RNase-Free H2O. The configured reaction system was subjected to Real-time PCR amplification on ABI StepOnePlus PCR instrument by a three-step method, wherein an amplification procedure was pre-denaturation at 95° C. for 10 min, then denaturation at 95° C. for 30 s, annealing at 60° C. for 30 s, and extension at 72° C. for 30 s; and processes of denaturation, annealing, and extension were repeated for 40 cycles. […]

[2] = test system: target gene Superoxide Dismutase 1 (SOD1); assay: Test Example 1: inhibitory activity of NM031 conjugated siRNA on SOD1 by lateral ventricular administration to mice (real-time PCR, ΔΔCt); assay type: in vivo, C57BL/6j mice; conditions: lateral ventricle, 200 μg per mouse, D5
Description: In the context of the present disclosure, unless otherwise stated, Real-time PCR detection data in in vivo activity experiments involved in the present disclosure are all used for relative quantitative calculation of gene mRNA of interest in various test groups by a ΔΔCt method, and a calculation method is summarized as follows:
Taking the control group as reference, expression level of the gene mRNA of interest in the test group is normalized, and remaining expression level of the gene mRNA of interest in the […] is defined as 100%.
6-8 Week-old C57BL/6j mice were randomly grouped by body weight, 5 per group, 2 groups in total, i.e., PBS group (dosed with siRNA-free PBS solution) and RZ899008 group (dosed with siRNA RZ899008 (the sense strand with the NM031 conjugation at Position 4) prepared in Example 1). Mice in each group were anaesthetized by intraperitoneal injection of 5% chloral hydrate, and were immobilized with the cerebral stereotaxic apparatus after being anaesthetized. Head skin was cut, positioning coordinates of right lateral ventricle were found with the stereotaxic apparatus and position was marked on surface of skull, wherein the positioning coordinates of the lateral ventricle were as follows: in coordinate axes with Bregma point as an origin, ML (mediolateral, left and right of middle raphe, i.e., X-axis) value=1.2 mm, and AP (anteroposterior, bregma anterior and posterior, i.e., Y-axis) value=−0.58 mm, and DV (dorsoventral, down skull (cerebral dura mater) plane, i.e., Z-axis) value=2.2 mm. A dental electric drill was used to drill in the skull above a position of interest, and then sucked drug was injected into the lateral ventricle by a micro-dosing pump. An administration dose to each mouse in the RZ899008 group was 200 μg (dose being measured as siRNA, concentration of siRNA being 20 μg/μL, PBS buffer as a solvent), and a total injection volume was […]. PBS group was administered with the same volume of siRNA-free PBS solution. […] The day of administration was recorded as first day (D1), and the mice were sacrificed on the fifth day (D5). […]

Substance: RZ899008: siRNA, the sense strand with the NM031 conjugation at Position 4; SEQ ID NO: 3 / 2 (sense UUUNAAUCCUCACUCUAAA; antisense UUUAGAGUGAGGAUUAAAAUG; NM031 conjugate at sense position 4; modified_base 1..2 OTHER; 2'-methoxy and 5'-thiophosphate modified nucleotides; modified_base 3 OTHER; 2'-methoxy modified nucleotide; modified_base 4 OTHER; n is the synthetic nucleotide analog NM031 as described in the disclosure (e.g., NM031-1 ((1-[(2R,3R,4S,5R)-5-{[bis(4-methoxyphenyl)(phenyl)methoxy]methyl}-3,4-dihydroxyoxolan-2-yl]-3H-pyrimidin-2,4-dione)).; modified_base 5..6 OTHER; 2'-meth; modified_base 1 OTHER; 2'-methoxy and 5'-thiophosphate modified nucleotide; modified_base 2 OTHER; 2'-fluoro and 5'-thiophosphate modified nucleotide; …)
- Cerebellum Mean value of inhibition rate % ([1]; cerebellum, intrathecal, 800 μg per mouse): 67.72%
- activity compared with control molecule RZ899001 and molecule RX899001 without vector conjugation ([1]; lumbar spine, thoracic spine and cerebellum, intrathecal 800 μg per mouse): superior
- Lumbar spine Mean value of inhibition rate % ([1]; lumbar spine, intrathecal, 800 μg per mouse): 80.09% and 78.99%
- Thoracic spine Mean value of inhibition rate % ([1]; thoracic spine, intrathecal, 800 μg per mouse): 78.99% and 80.09%
- Hippocampus Mean value of inhibition rate % ([2]; administration-side hippocampus): 82.94%
- Parietal cortex Mean value of inhibition rate % ([2]; administration-side parietal cortex): 73.57%
- Cerebellum Mean value of inhibition rate % ([2]; cerebellum): 40.08%
